The values that follow come from patent publication US7998987B2, “Inhibitors of c-Met and uses thereof” (Vertex Pharmaceuticals Incorporated, priority 2005, dated 2011).

A word on the pKi: it is −log10 of the Ki, conventionally taken in molar units.

pKi: −log10 of the molar value. Some results are limits rather than exact numbers.

c-Met, sequence (P08581 25-1390): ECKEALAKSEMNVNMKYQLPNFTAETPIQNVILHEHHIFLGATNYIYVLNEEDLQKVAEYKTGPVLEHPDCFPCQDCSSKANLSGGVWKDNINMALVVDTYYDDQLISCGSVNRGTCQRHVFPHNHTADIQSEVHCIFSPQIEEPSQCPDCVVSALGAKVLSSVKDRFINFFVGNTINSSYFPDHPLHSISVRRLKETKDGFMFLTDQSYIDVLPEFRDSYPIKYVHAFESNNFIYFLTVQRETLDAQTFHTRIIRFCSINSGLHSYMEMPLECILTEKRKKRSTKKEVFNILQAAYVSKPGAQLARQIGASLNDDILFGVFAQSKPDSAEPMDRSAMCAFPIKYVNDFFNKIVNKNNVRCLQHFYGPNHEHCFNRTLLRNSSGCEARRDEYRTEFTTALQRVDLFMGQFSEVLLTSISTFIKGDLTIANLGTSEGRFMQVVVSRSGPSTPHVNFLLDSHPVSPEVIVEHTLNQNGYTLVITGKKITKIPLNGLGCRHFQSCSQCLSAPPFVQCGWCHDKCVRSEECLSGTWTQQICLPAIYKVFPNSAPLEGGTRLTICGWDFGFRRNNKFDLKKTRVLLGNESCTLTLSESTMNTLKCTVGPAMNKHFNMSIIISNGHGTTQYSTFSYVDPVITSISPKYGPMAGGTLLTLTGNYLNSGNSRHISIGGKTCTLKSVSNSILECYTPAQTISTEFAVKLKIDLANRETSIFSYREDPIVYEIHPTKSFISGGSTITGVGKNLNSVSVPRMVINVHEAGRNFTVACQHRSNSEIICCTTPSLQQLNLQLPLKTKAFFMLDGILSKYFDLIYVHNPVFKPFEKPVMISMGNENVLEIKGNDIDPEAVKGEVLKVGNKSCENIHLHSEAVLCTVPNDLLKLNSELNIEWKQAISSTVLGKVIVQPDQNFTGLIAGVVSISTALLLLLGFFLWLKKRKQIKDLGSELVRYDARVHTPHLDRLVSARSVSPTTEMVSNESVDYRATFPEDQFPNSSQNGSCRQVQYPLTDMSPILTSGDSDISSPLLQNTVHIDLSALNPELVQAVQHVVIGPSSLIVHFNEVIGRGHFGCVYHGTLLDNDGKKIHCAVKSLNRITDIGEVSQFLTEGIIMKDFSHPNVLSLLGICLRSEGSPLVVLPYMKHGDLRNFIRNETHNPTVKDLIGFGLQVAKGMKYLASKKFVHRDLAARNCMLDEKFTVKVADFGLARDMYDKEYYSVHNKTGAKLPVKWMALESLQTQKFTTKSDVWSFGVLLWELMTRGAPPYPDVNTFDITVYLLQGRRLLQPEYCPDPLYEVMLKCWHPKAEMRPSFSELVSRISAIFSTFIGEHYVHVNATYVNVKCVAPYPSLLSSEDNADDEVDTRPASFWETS

The first assay addresses c-Met (Homo sapiens, UniProt P08581). The experiment in a line: Ki determination for the inhibition of c-Met kinase activity (standard coupled enzyme system). In kind it is biochemical. The note with it: coupled enzyme system, 200 μM ATP, 80 nM c-Met, 30° C.; read-out: c-Met Ki. The procedure: Ki Determination for the Inhibition of c-Met
Reactions were carried out in a solution containing 100 mM HEPES (pH 7.5), 10 mM MgCl2, 25 mM NaCl, 300 μM NADH, 1 mM DTT, and 1.5% DMSO. Final substrate concentrations in the assay were 200 μM ATP (Sigma Chemicals, St Louis, Mo.) and 10 μM polyGluTyr (Sigma Chemical Company, St. Louis). Reactions were carried out at 30° C. and 80 nM c-Met. Final concentrations of the components of the coupled enzyme system were 2.5 mM phosphoenolpyruvate, 300 μM NADH, 30 μg/ml pyruvate kinase and 10 μg/ml lactate dehydrogenase.
An assay stock buffer solution was prepared containing all of the reagents listed above with the exception of ATP and a test compound of the present invention. […] The reaction was initiated by the addition of 20 μL of ATP (final concentration 200 μM). Rates of reaction were obtained using a Molecular Devices Spectramax plate reader (Sunnyvale, Calif.) over 10 minutes at 30° C. The Ki values were determined from the rate data as a function of inhibitor concentration.
As to `Clc1cccc(Nc2ccc3nnc(Cc4c[nH]c5ccccc45)n3n2)c1` [Compound 460], the negative-log Ki (pKi) is under 5.70.
On the same count and under the same terms, in the case of `CC(=O)c1cn(Cc2nnc3ccc(Nc4cccc(Cl)c4)nn23)c2ncccc12` [Compound 480] it was under 5.70; in that of `CC(c1ccc(F)cc1)c1nnc2ccc(Nc3cccc(Cl)c3)nn12` (stereo not drawn) [Compound 493], over 7.00.
Same read-out and setting: in the case of `COc1ccc(Cc2nnc3ccc(Nc4ccc(F)c(Cl)c4)nn23)cc1` [Compound 425] it was over 7.00.
For the molecule `OCCc1cccc(Nc2ccc3nnc(Cc4ccc(O)c(Cl)c4)n3n2)c1` [Compound 300], the negative logarithm of the Ki (pKi) is 5.70 to 7.00.
On the same count and under the same terms, in the case of `Nc1ncccc1OCc1nnc2ccc(Nc3cccc(Cl)c3)nn12` [Compound 413] it was over 7.00; in that of `Fc1ccc(OCc2nnc3ccc(Nc4cccc(Cl)c4)nn23)cn1` [Compound 453], 5.70 to 7.00.
For `Clc1cccc(Nc2ccc3nnc(COc4ccccn4)n3n2)c1` [Compound 373], the pKi was under 5.70.
Consider `Clc1cccc(Nc2ccc3nnc(CNc4cccc(OCc5ccccc5)c4)n3n2)c1` [Compound 333], for which the pKi was under 5.70.
On the same count and under the same terms, with `C[C@@H](c1ccc(O)cc1)c1nnc2ccc(Nc3nc4ccccc4s3)nn12` [Compound 499] the figure was 5.70 to 7.00; with `CC(c1ccc(O)cc1)c1nnc2ccc(Nc3cccc(Cl)c3)nn12` (stereo not drawn) [Compound 321], over 7.00.
Same read-out and setting: in the case of `CC[C@H](CO)Nc1ccc2nnc(Cc3ccc(O)cc3)n2n1` [Compound 312] it was 5.70 to 7.00; in that of `C[C@@H](c1ccc(O)cc1)c1nnc2ccc(Sc3ncc[nH]3)nn12` [Compound 511], under 5.70.
`CS(=O)(=O)Nc1cccc(Cc2nnc3ccc(Nc4cccc(Cl)c4)nn23)c1` [Compound 403]: the pKi was 5.70 to 7.00.
Take `Oc1ccc(Cc2nnc3n2N=C(c2ccc4c(c2)OCCO4)CS3)cc1` [Compound 533]: the negative logarithm of the Ki (pKi) was over 7.00.
On the same count and under the same terms, with `C[C@@H](c1ccc(O)cc1)c1nnc2ccc(Nc3cccc(Cl)c3)nn12` [Compound 320] the figure was over 7.00; with `Clc1cccc(Nc2ccc3nnc(COc4cccnc4Cl)n3n2)c1` [Compound 374], 5.70 to 7.00.
Still for that read-out and setting: with `CCc1nnc(Nc2ccc3nnc([C@@H](C)c4ccc(O)cc4)n3n2)s1` [Compound 515] the figure was 5.70 to 7.00; with `CS(=O)(=O)c1ccc(Cc2nnc3n2N=C(c2ccccc2)CS3)cc1` [Compound 528], under 5.70; with `CC(c1ccc(O)cc1)c1nnc2n1N=C(c1ccccc1)CS2` (stereo not drawn) [Compound 525], over 7.00.
Take `Oc1ccc(Cc2nnc3ccc(Nc4cc(Cl)ccc4Cl)nn23)cc1` [Compound 361]: the pKi was over 7.00.
The same measure, in the same setting: with `Oc1cccc(Cc2nnc3ccc(Nc4cccc(Cl)c4)nn23)c1` [Compound 365] the figure was 5.70 to 7.00; with `Clc1cccc(Nc2ccc3nnc(COc4ccc5cccnc5c4)n3n2)c1` [Compound 423], over 7.00.
`Oc1ccc(Cc2nnc3ccc(Nc4nc5ccc(Cl)cc5s4)nn23)cc1` [Compound 481]: the pKi was 5.70 to 7.00.
On the same count and under the same terms, in the case of `Cc1ccc(Cl)cc1Nc1ccc2nnc(Cc3ccc(O)cc3)n2n1` [Compound 358] it was over 7.00.
The same measure, in the same setting: in the case of `C[C@@H](c1ccc(O)cc1)c1nnc2ccc(Nc3nc4ccc(Cl)cc4s3)nn12` [Compound 483] it was over 7.00.
Still for that read-out and setting: in the case of `Clc1cccc(Nc2ccc3nnc(CNc4ccc5c(c4)OCO5)n3n2)c1` [Compound 347] it was 5.70 to 7.00.
Regarding `CC(Cn1cnc2ccccc21)c1nnc2ccc(Nc3cccc(Cl)c3)nn12` (stereo not drawn) [Compound 421], the pKi is under 5.70.
Still for that read-out and setting: in the case of `COc1ccc(Cc2nnc3n2N=C(c2cccs2)CS3)cc1` [Compound 547] it was 5.70 to 7.00.
In the case of `NC(c1ccc(F)cc1)c1nnc2ccc(Nc3cccc(Cl)c3)nn12` (stereo not drawn) [Compound 492], the pKi was 5.70 to 7.00.
Same read-out and setting: in the case of `CC(O)c1cccc(Nc2ccc3nnc(Cc4ccc(O)c(Cl)c4)n3n2)c1` (stereo not drawn) [Compound 299] it was 5.70 to 7.00; in that of `O=C(Cc1ccccc1)N1CCC(Nc2ccc3nnc(Cc4ccc(O)cc4)n3n2)CC1` [Compound 325], 5.70 to 7.00.
Take `Clc1cccc(Nc2ccc3nnc(Cc4cc5c(cc4Cl)OCO5)n3n2)c1` [Compound 504]: the negative-log Ki (pKi) was 5.70 to 7.00.
Still for that read-out and setting: with `O=C1NCCCCC1Nc1ccc2nnc(Cc3ccc(O)cc3)n2n1` (stereo not drawn) [Compound 307] the figure was under 5.70; with `O=c1ccc(Cc2nnc3ccc(Nc4cccc(Cl)c4)nn23)c[nH]1` [Compound 502], over 7.00; with `Clc1cccc(Nc2ccc3nnc(COc4cccnc4)n3n2)c1` [Compound 371], 5.70 to 7.00.
Still for that read-out and setting: with `COc1ccc(OCc2nnc3ccc(Nc4cccc(Cl)c4)nn23)c(N)c1` [Compound 434] the figure was 5.70 to 7.00.

The same assay, now with this note: coupled enzyme system, 200 μM ATP, 10 μM polyGluTyr, 80 nM c-Met, 30° C.; read-out: c-Met Ki.
As to `CN(C)c1ccc(Cc2nnc3ccc(-c4ccccc4)nn23)cc1` [Compound 212], the pKi was under 5.70.
`Oc1ccc(Cc2nnc3ccc(Nc4cccc(C(F)(F)F)c4)nn23)cc1Cl` [Compound 224]: the pKi is over 7.00.
Same read-out and setting: in the case of `COc1ccc(Cc2nnc3ccc(Nc4cccc(OC)c4)nn23)cc1` [Compound 242] it was 5.70 to 7.00; in that of `CNC(=O)c1cccc(Nc2ccc3nnc(Cc4ccc(O)cc4)n3n2)c1` [Compound 232], 5.70 to 7.00.
In the case of `Oc1ccc(Cc2nnc3ccc(Nc4cccc(C(F)(F)F)c4)nn23)cc1` [Compound 223], the pKi was over 7.00.
Still for that read-out and setting: in the case of `CCC(C)c1ccc(Nc2ccc3nnc(Cc4ccc(O)cc4)n3n2)cc1` (stereo not drawn) [Compound 183] it was 5.70 to 7.00; in that of `Oc1ccc(Cc2nnc3ccc(NCCN4CCOCC4)nn23)cc1` [Compound 204], under 5.70; in that of `Oc1ccc(Cc2nnc3ccc(-c4ccccc4)nn23)cc1` [Compound 176], 5.70 to 7.00.
Same read-out and setting: with `Oc1ccc(Cc2nnc3ccc(Nc4cccc(Cl)c4)nn23)cc1` [Compound 185] the figure was over 7.00; with `CC(O)c1cccc(Nc2ccc3nnc(Cc4ccc5c(c4)OCO5)n3n2)c1` (stereo not drawn) [Compound 258], 5.70 to 7.00.
Turning to `c1cc2c(cc1Cc1nnc3sc(NCC4CCCO4)nn13)OCO2` (stereo not drawn) [Compound 42], the pKi is under 5.70.
The same measure, in the same setting: with `O=C(Nc1cccc(Cl)c1)Nc1nn2c(Cc3ccc(O)cc3)nnc2s1` [Compound 112] the figure was under 5.70; with `O=C(Nc1ccccc1)Nc1nn2c(Cc3ccc(O)cc3)nnc2s1` [Compound 113], under 5.70.
As to `CC(C)CC(C)Nc1ccc2nnc(Cc3ccc(O)cc3)n2n1` (stereo not drawn) [Compound 279], the pKi was 5.70 to 7.00.
Turning to `COc1cccc(Nc2ccc3nnc(Cc4ccncc4)n3n2)c1` [Compound 244], the pKi is under 5.70.
Still for that read-out and setting: with `Oc1ccc(Cc2nnc3sc(Nc4cc(Cl)cc(Cl)c4)nn23)cc1` [Compound 50] the figure was over 7.00.
Still for that read-out and setting: in the case of `OCc1cccc(Nc2ccc3nnc(Cc4ccc(O)cc4)n3n2)c1` [Compound 259] it was over 7.00; in that of `Oc1ccc(Cc2nnc3ccc(N4CCCCC4)nn23)cc1` [Compound 177], 5.70 to 7.00.
In the case of `COc1cccc(N2CCN(c3ccc4nnc(Cc5ccc(O)cc5)n4n3)CC2)c1` [Compound 194], the pKi is 5.70 to 7.00.
On to `OCCc1cccc(Nc2ccc3nnc(Cc4ccc(O)cc4)n3n2)c1` [Compound 264], for which the negative logarithm of the Ki (pKi) was over 7.00.
On the same count and under the same terms, in the case of `Oc1ccc(Cc2nnc3sc(NCC4CCCO4)nn23)cc1` (stereo not drawn) [Compound 17] it was 5.70 to 7.00.
Still for that read-out and setting: in the case of `Oc1ccc(Cc2nnc3ccc(N[C@H]4CC[C@H](O)CC4)nn23)cc1` [Compound 272] it was 5.70 to 7.00; in that of `COc1cccc(Nc2nn3c(Cc4ccc(O)c(Cl)c4)nnc3s2)c1` [Compound 36], 5.70 to 7.00.
In the case of `Cc1cccc(Nc2nn3c(Cc4ccc(O)cc4)nnc3s2)c1` [Compound 44], the pKi was over 7.00.
As for `COc1ccc(Cc2nnc3sc(Cc4ccccc4)nn23)cc1` [Compound 21], the negative logarithm of the Ki (pKi) was under 5.70.
Still for that read-out and setting: in the case of `O=C1CCCN1CCCNc1ccc2nnc(Cc3ccc(O)cc3)n2n1` [Compound 199] it was under 5.70.
As for `OCCc1cccc(Nc2ccc3nnc(Cc4ccc(O)c(F)c4)n3n2)c1` [Compound 265], the pKi is 5.70 to 7.00.
Still for that read-out and setting: with `CC(c1ccc(O)cc1)c1nnc2sc(Nc3cccnc3)nn12` (stereo not drawn) [Compound 82] the figure was over 7.00; with `CC(C)[C@H](C)Nc1ccc2nnc(Cc3ccc(O)cc3)n2n1` [Compound 193], 5.70 to 7.00; with `CC(c1ccc(O)cc1)c1nnc2sc(Nc3cccc(F)c3)nn12` (stereo not drawn) [Compound 100], over 7.00.
The same measure, in the same setting: in the case of `Oc1ccc(Cc2nnc3sc(Nc4ccccc4Cl)nn23)cc1` [Compound 78] it was over 7.00; in that of `C[C@@H](c1ccc(O)cc1)c1nnc2sc(Nc3cccc(F)c3)nn12` [Compound 105], over 7.00; in that of `CNC(=O)c1cccc(Nc2ccc3nnc(Cc4ccc5c(c4)OCO5)n3n2)c1` [Compound 236], 5.70 to 7.00.
For the molecule `Oc1ccc(Cc2nnc3ccc(Nc4cccc(F)c4)nn23)cc1Cl` [Compound 219], the pKi is over 7.00.
On the same count and under the same terms, with `C[C@@H](c1ccc(O)cc1)c1nnc2sc(Nc3ccc(F)c(Cl)c3)nn12` [Compound 159] the figure was over 7.00; with `Oc1ccc(Cc2nnc3sc(Nc4cc(F)cc(F)c4)nn23)cc1F` [Compound 131], over 7.00.
On the same count and under the same terms, in the case of `CC(C)C[C@@H](CO)Nc1ccc2nnc(Cc3ccc(O)cc3)n2n1` [Compound 188] it was 5.70 to 7.00.
Take `COc1ccc(Cc2nnc3sc(C4CCCCN4)nn23)cc1` (stereo not drawn) [Compound 24]: the negative logarithm of the Ki (pKi) is under 5.70.
